In article PMC11406516, “The Tuberculosis Drug Candidate SQ109 and Its Analogs Have Multistage Activity against Plasmodium falciparum” (ACS Infectious Diseases, 2024):
Values after ≈ are worked out from the molar mass of the structure shown. Like-named read-outs stand apart in the source and are kept apart here. Marks after values point to notes of the source that are not given here.

What was measured:
[1] = system: PfNF54 LGc (stage IV/V gametocytes); experiment: PrestoBlue late-stage gametocyte viability assay; type: cell-based, Plasmodium falciparum; details: Plasmodium falciparum; stage IV/V gametocytes, 48 h drug pressure; read-out: PfNF54 LGc IC50
Description: Gametocytogenesis was induced on highly synchronized (>95%) asexual ring-stage parasites from PfNF54 at 0.5% parasitemia and 6% hematocrit and thereafter maintained in glucose-deprived media as previously described.[29],[15] After 3 days, the hematocrit was decreased to 4%. Parasites were maintained in complete culture media supplemented with 50 mM N-acetyl-glucosamine 5–10 days post induction to inhibit proliferation of residual asexual blood stages. Gametocyte progression and morphology was also monitored microscopically using Giemsa-stained thin smears.
activity against the sexual stages of P. falciparum was evaluated using the PrestoBlue fluorescence assay as previously described.[4] Activity was measured on PfNF54 stage IV/V gametocytes (2% gametocytemia, 5% hematocrit) previously seeded with compounds (in non-lethal DMSO) for 48 h drug pressure, after which PrestoBlue reagent was added and incubated for 2 h. Fluorescence was detected in the supernatant at 612 nm. Dihydroartemisinin (DHA) was used as a positive drug control.

physchem = type: physicochemical; details: 37 °C, pH 6.5, aqueous buffer, thermodynamic from solid
Description: The stock solutions (10^–2 M) of the assayed compounds were diluted to decreased molarity, from 300 to 0.1 μM, in 384 well transparent plate (Greiner 781801) with 1% DMSO:99% PBS buffer. Then, they were incubated at 37 °C and the light scattering was measured after 2 h in a NEPHELOstar Plus (BMG LABTECH). The results were adjusted to a segmented regression to obtain the maximum concentration in which compounds are soluble.
The solubility of each product was evaluated using an HPLC Agilent 1100 with a DAD detector. The samples were injected in an Agilent Poroshell 120 EC-C18, 2.7 μm, 50 mm × 4.6 mm column at 40 °C and 0.6 mL/min flow. The mobile phase was a mixture of A = water with 0.05% formic acid and B = acetonitrile with 0.05% formic acid. The procedure followed was from 95% A–5% B to 100% B in 3 min, 100% B in 3 min, from 100% B to 95% A–5% B in 1 min, 95% A–5% B in 3 min; the injection volume was set at 75 μL. […] The samples remained at these conditions between 12–24 h. Then, the samples were filtered through a 0.45 μm PVDF filter and either directly analyzed or diluted before analyzing. The obtained area under the curve was compared with the one from the standard solution.

male gametes (PfNF54) = experiment: Male gamete exflagellation inhibition assay (EIA); type: cell-based; details: Plasmodium falciparum; 2 μM, 48 h; read-out: male gamete inhibition %
Description: The EIA was performed using video microscopy by capturing the movement of exflagellation centers over time as previously described.[4],[30] Mature PfNF54 stage V gametocytes (>95%;) were treated with 2 μM of drug for 48 h before the activation of exflagellation, without removing drug pressure. Movement was semi-automatically quantified from 15 videos of 8–10 s each between 15 and 22.5 min after incubation. Each video was analyzed using ICY-bio image analysis software.

female gametes = experiment: Female gamete inhibition assay; type: cell-based, Plasmodium falciparum; parameters: concentration or dose not given beside the values
Description: Similarly, female gametes were activated as described previously.[31] Monoclonal anti-Pfs antibody conjugated to FITC was used to detect female gametes. Image acquisition was performed using a Zeiss Axio Lab.A1 epifluorescence microscope with a 100/1.4 numerical aperture (NA) oil immersion. Thirty images were captured per sample and analyzed manually.

PfNF54 ABS [2] = system: PfNF54 ABS; parameters: method as in Stampolaki et al.[5]; details: drug-sensitive NF54; ref Stampolaki et al.[5]; read-out: Pf ABS IC50 NF54; cited from earlier work
HepG2 cells [3] = experiment: HepG2 cytotoxicity, LDH release assay; details: Homo sapiens, HepG2, 24 h, read-out: HepG2 EC50
Description: (§1) Furthermore, compounds were evaluated against late (stage IV/V) gametocytes from PfNF54 (PfNF54 LGc), with viability detected with PrestoBlue,[15] and orthogonally evaluated for toxicity against a human hepatocellular carcinoma line, HepG2.[16]
(§2) Human hepatocellular liver carcinoma cells (HepG2) were cultivated in vitro in Dulbecco’s Modified Eagle’s Medium (DMEM) supplemented with 10% (v/v) heat inactivated fetal bovine serum and 1% (v/v) penicillin/streptomycin.[14] Cells were detached with trypsin treatment at 80% confluency and were seeded in 96-well plates to adhere for 24 h under 5% CO2, humid (95%) conditions. Cells were subsequently exposed to drug pressure for 24 h and cytotoxicity was then determined using the lactate dehydrogenase (LDH) release assay through the colorimetric detection at 450 nm, as previously outlined.[4],[16]

PfNF54 ABS [4] = experiment: SYBR Green I proliferation assay, asexual blood stages, drug-sensitive NF54; details: for IC50: Plasmodium falciparum, NF54, 96 h, read-out: Pf ABS IC50 NF54
Description: (§3) P. falciparum asexual parasites were cultured from drug-sensitive NF54 (PfNF54) and multidrug resistant strains PfK1. Parasites were maintained in human erythrocytes (O+, suspended at 5% hematocrit) in RPMI-1640 culture medium (23.81 mM sodium bicarbonate, 0.024 mg/mL gentamycin, 25 mM HEPES pH 7.5, 0.2% D-glucose, 0.2 mM hypoxanthine and Albumax II) under hypoxic conditions (5% CO2, 5% O2 and 90% N2) with moderate shaking (60 rpm) at 37 °C. Cultures were synchronized to >95% in the ring stage with 5% (w/v) D-sorbitol treatment.[28]
(§4) Activity against the asexual stage of P. falciparum was evaluated using the SYBR Green I-based fluorescence assay as previously described.[4],[16] Cellular proliferation was measured on synchronized in vitro PfNF54 ring-stage parasites (1% parasitemia, 2% hematocrit), following drug pressure for 96 h. Chloroquine was used as the positive drug control for complete inhibition of parasite proliferation.

PfK1 = experiment: SYBR Green I proliferation assay, asexual blood stages, multidrug-resistant K1; details: Plasmodium falciparum, K1, read-out: Pf ABS IC50 K1
Description: as §3, §4

oocyst formation = experiment: Standard membrane feeding assay (SMFA), oocyst formation in Anopheles coluzzii; type: in vivo; details: Plasmodium falciparum, 48 h drug treatment at 2 μM, single biological repeat
Description: Transmission-blocking activity was confirmed in the standard membrane feeding assay (SMFA), by determining transmission-reducing activity (TRA; reduction in oocyst counts) and transmission-blocking activity (TBA, reduction in oocyst prevalence), 8–10 days after feeding female mosquitoes on gametocyte-infected blood, treated with selected compounds (at 2 μM).
SMFA was performed using glass feeders as is outlined.[4],[16] Once again, mature stage V gametocytes (>95%) were treated with 2 μM of each compound for 48 h prior to feeding. Anopheles coluzzii females were allowed to feed on gametocyte cultures (1.5–2.5% gametocytemia, 50% hematocrit in A+ male serum with fresh erythrocytes) in the dark for 40 min. All unfed or partially fed mosquitoes were removed, and remaining females housed for 8–10 days. Mosquitoes were dissected to remove midguts, and oocysts counted under bright field illumination at ×20–×40 magnification. The percentage of block in transmission (transmission-blocking activity; TBA) and the percentage of reduction in the number of oocysts (transmission-reducing activity; TRA) were calculated after normalizing to the control untreated sample.

in vitro = in vitro ADME; details: microsomes
Description: The microsomal stability assay used a single-point assay design (Di et al., 2004). Briefly, the compounds were incubated at 1 μM in human, rat, and mouse liver microsomes (0.4 mg/mL) for 30 min at 37 °C. Reactions were quenched by adding ice-cold acetonitrile containing internal standard (carbamazepine, 0.0236 μg/mL). The samples were then centrifuged, and the samples were analyzed by liquid chromatography with tandem mass spectrometry (LC-MS/MS) (Agilent Rapid Resolution HPLC, AB SCIEX 4500 MS) for the disappearance of the parent compound. Half-life, clearance and hepatic […] ratios were determined using standard equations.

HepG2 cells [5] = system: HepG2 cells; parameters: method as in Stampolaki et al.[5]; details: compound at 20 μM; ref Stampolaki et al.[5]; cited from earlier work
[6] = HepG2 cytotoxicity, LDH release assay; details: human, HepG2 cells
Description: as §1, §2

[7] = read-out: oocyst formation (% inhibition) TBA
[8] = read-out: oocyst formation (% inhibition) TRA

SMILES: CCC1(NCCNC/C=C(\C)CCC=C(C)C)C2CC3CC(C2)CC1C3 (stereo not shown) [Compound 2]
- IC50 [1]: 580 ± 40 nM
- solubility (physchem): 840 µM (≈ 301 µg/mL)
- inhibition at 2 µM (male gametes (PfNF54)): 95.5 ± 4.55%
- female gamete inhibition % (female gametes): 78.88 ± 4.46%
- IC50 (PfNF54 ABS [2]): 160 ± 70 nM
- EC50 (HepG2 cells [3]): 5.21 ± 1.33 µM
- fold improvement in ABS activity compared to 1 (PfNF54 ABS [4]; PfNF54 ABS): 10 fold
- IC50 (PfK1): 100 ± 20 nM

SMILES: CCCCC1(NCCNC/C=C(\C)CCC=C(C)C)C2CC3CC(C2)CC1C3 (stereo not shown) [Compound 3]
- IC50 [1]: 300 ± 30 nM
- inhibition at 2 µM (male gametes (PfNF54)): 81.4 ± 8.64%
- female gamete inhibition % (female gametes): 67.05 ± 0.39%
- inhibition at 2 µM (oocyst formation; [7]): 36%
- inhibition at 2 µM (oocyst formation; [8]): 11%
- IC50 (PfNF54 ABS [2]): 270 ± 40 nM
- EC50 (HepG2 cells [3]): 10.2 ± 1.7 µM
- IC50 (PfK1): 130 ± 30 nM

SMILES: CCCC1(NCCNC/C=C(\C)CCC=C(C)C)C2CC3CC(C2)CC1C3 (stereo not shown) [Compound 6]
- IC50 [1]: 370 ± 20 nM
- solubility (physchem): 334 µM (≈ 124 µg/mL)
- microsomal CLint at 1 µM (in vitro; human): 322 µL/min/mg
- microsomal CLint at 1 µM (in vitro; mouse): 308 µL/min/mg
- microsomal CLint at 1 µM (in vitro; rat): 400 µL/min/mg
- inhibition at 2 µM (male gametes (PfNF54)): 34.6 ± 14.3%
- female gamete inhibition % (female gametes): 64.59 ± 12.33%
- inhibition at 2 µM (oocyst formation; [7]): 67%
- inhibition at 2 µM (oocyst formation; [8]): 53%
- HepG2 % viability (HepG2 cells [5]): 100^%c
- IC50 (PfNF54 ABS [4]): 500 ± 140 nM
- IC50 (PfK1): 1330 ± 500 nM

SMILES: CC(C)=CCC/C(C)=C/CNCCNC1(C)C2CC3CC(C2)CC1C3 (stereo not shown) [Compound 7]
- IC50 [1]: 200 ± 20 nM
- solubility (physchem): 773 µM (≈ 266 µg/mL)
- microsomal CLint at 1 µM (in vitro; human): 254 µL/min/mg
- microsomal CLint at 1 µM (in vitro; mouse): 348 µL/min/mg
- microsomal CLint at 1 µM (in vitro; rat): 373 µL/min/mg
- inhibition at 2 µM (male gametes (PfNF54)): 27.1 ± 14%
- female gamete inhibition % (female gametes): 34.05 ± 9.23%
- IC50 (PfNF54 ABS [2]): 660 ± 160 nM
- HepG2 % viability (HepG2 cells [5]): 100%^c
- IC50 (PfK1): 860 ± 270 nM

SMILES: CC(C)=CCC/C(C)=C/CNCCNC(C)(C)C1C2CC3CC(C2)CC1C3 (stereo not shown) [Compound 8]
- IC50 [1]: 290 ± 10 nM
- solubility (physchem): 2340 µM (≈ 872 µg/mL)
- microsomal CLint at 1 µM (in vitro; human): 426 µL/min/mg
- microsomal CLint at 1 µM (in vitro; mouse): 218 µL/min/mg
- microsomal CLint at 1 µM (in vitro; rat): 467 µL/min/mg
- inhibition at 2 µM (male gametes (PfNF54)): 23.5 ± 9.72%
- female gamete inhibition % (female gametes): 54.00 ± 2.54%
- IC50 (PfNF54 ABS [2]): 770 ± 100 nM
- HepG2 % viability (HepG2 cells [5]): 100%^c
- IC50 (PfK1): 1610 ± 550 nM

SMILES: CC(C)=CCC/C(C)=C/CNCCNC12CC3CC(CC(C3)C1)C2 [Compound 9]
- IC50 [1]: 700 ± 10 nM
- inhibition at 2 µM (male gametes (PfNF54)): 96.7 ± 3.33%
- female gamete inhibition % (female gametes): 90.50 ± 7.17%
- inhibition at 2 µM (oocyst formation; [7]): 47%
- inhibition at 2 µM (oocyst formation; [8]): 70%
- EC50 (HepG2 cells [3]): 12.9 ± 1.4 µM
- IC50 (PfNF54 ABS [4]): 990 ± 210 nM
- IC50 (PfK1): 2320 ± 550 nM

SMILES: CC(C)=CCC/C(C)=C/CNCCNC1CC2CCC1C2 (stereo not shown) [Compound 10]
- IC50 [1]: 500 ± 70 nM
- solubility (physchem): 155 µM (≈ 45 µg/mL)
- viability at 24 h, 20 µM [6]: 97%
- IC50 (PfNF54 ABS [4]): 1170 ± 200 nM

SMILES: CC(C)=CCC/C(C)=C/CNCCNC1CC2CCC1CC2 (stereo not shown) [Compound 11]
- IC50 [1]: 220 ± 40 nM
- viability at 24 h, 20 µM [6]: 100%
- IC50 (PfNF54 ABS [4]): 1660 ± 300 nM

SMILES: CC(C)=CCC/C(C)=C/CNCCNCc1ccccc1 [Compound 12]
- IC50 [1]: 410 ± 200 nM
- solubility (physchem): 160 µM (≈ 45.8 µg/mL)
- viability at 24 h, 20 µM [6]: 94%
- IC50 (PfNF54 ABS [4]): 4320 ± 600 nM

SMILES: CC(C)=CCC/C(C)=C/CN(C)CCNC1C2CC3CC(C2)CC1C3 (stereo not shown) [Compound 14]
- IC50 [1]: > 10000 nM
- viability at 24 h, 20 µM [6]: 100%
- IC50 (PfNF54 ABS [4]): 1090 ± 350 nM
